Data set [1] deals with CDK9/Cyclin T1 (Homo sapiens (Human), UniProt P50750). Briefly: In-vitro inhibition of CDK9/Cyclin T1 kinase activity (Caliper mobility shift). To be noted: for Ki: Ki calculated from IC50 under Km ATP condition (Cheng and Prusoff); for Selectivity (CDK9 Ki/CDK7 KD): Ki off-target / KD CDK7 (SPR). Format: biochemical. An excerpt:
(§1) CDK2/Cyclin E1 was purchased from Biortus; batch No.: 20150228-BP469/477/691; CDK7/Cyclin H/MAT1 was purchased from Biortus; Batch No.: 20190326-BP487/492/479; CDK9/Cyclin T1 was purchased from Biortus; Batch No.: 20200727-BP488/792/691; CDK12/Cyclin K was purchased from Biortus; Batch No.: 20200526-BP1642/1648/691; MES was purchased from BiRoYee (Baoruyi); Batch No.: 67GR9637; BSA was purchased from Aladdin; Batch No.: H1601024; ATP was purchased from VWR; Batch No.: 97061-226; EDTA was purchased from Sinopharm Group; Batch No.: 20200521; and staurosporine was purchased from Selleckchem; Batch No.: S1421.
(§2) This experiment was used for determining the inhibition of the activities of CDK2, CDK7, CDK9 and CDK12 kinases by the compound. The kinase reaction carried out by the present invention was measured in a 384-well plate, the final measured volume was 16 μl, and the reaction temperature was 27° C. The concentrations of the kinases were determined by optimization experiment. The specific experimental process was as follows: • 1) preparation of kinase solutions: • kinase solution (CDK2/Cyclin E1): the kinase was diluted in a assay buffer solution ((20 mM MES pH 6.75, 0.01% Tween 20, 0.05 mg/mL BSA, 2 mM MgCl2) to obtain an enzyme solution with the corresponding 2.4× concentration; • kinase solution (CDK7/Cyclin H/MAT1): the kinase was diluted in the assay buffer solution (20 mM MES pH 6.75, 0.01% Tween 20, 0.05 mg/mL BSA, 6 mM MgCl2) to obtain an enzyme solution with the corresponding 2.4× concentration; • kinase solution (CDK9/Cyclin T1): the kinase was diluted in the assay buffer solution (20 mM MES pH 6.75, 0.01% Tween 20, 0.05 mg/mL BSA, 10 mM MgCl2) to obtain an enzyme solution with the corresponding 2.4× concentration; and • kinase solution (CDK12/Cyclin K): the kinase was diluted in a assay buffer solution (80 mM MES pH 6.5, 0.01% Tween 20, 0.05 mg/mL BSA, 10 mM MgCl2) to obtain an enzyme solution with the corresponding 2.4× concentration. • 2) Preparation of compound solutions: the compound was dissolved in dimethyl sulfoxide (DMSO) at a concentration of 10 mM, the compound was diluted to 10 concentration gradients of 25 nM to 500 μM with DMSO during use, diluted in ultrapure water by 8.3 times respectively to obtain compound solutions with 6× concentration. • 3) Preparation of a polypeptide substrate and ATP solution: the polypeptide substrate and ATP were diluted in the assay buffer solution to obtain a polypeptide substrate and ATP mixed solution with 2.4× concentration. • 4) Kinase reaction process: • 2 ul of the test compound solution, 5 ul of the polypeptide substrate and ATP mixed solution and 5 ul of an enzyme solution were mixed and incubated at 27° C. (CDK2 was incubated for 60 min, CDK7 was incubated for 70 min, CDK9 was incubated for 70 min, and CDK12 was incubated for 280 min), and then 4 ul of EDTA with a concentration of 150 mM was added into each sample to terminate the reaction. […] The data was calculated with GraphPad Prism version 9.0, and an IC50 value was obtained by adjusting a nonlinear regression model using a dose reaction curve. The calculation formula was Y=Bottom+(Top-Bottom)/(1+10^((LogIC50−X)*HillSlope)). X represents a log value (log of dose or concentration); Y represents an inhibition rate (% inhibition, increasing as x increases) which was increased along with the increase of X; Top represents maximum response; Bottom represents baseline response; and HillSlope represents a curve slope.

Data set [2] relates to HCC70 human breast ductal cancer cells. Briefly: HCC70 tumor cell proliferation inhibition (CellTiter-Glo). Particulars: 3 d culture. Format: cell-based. How it is done:
HCC70 was purchased from ATCC; article No.: CRL-2315; RPMI1640 was purchased from Gibco; article No.: 11875-093; Pancreatin (including EDTA) was purchased from Gibco; article No.: 25200-072; FBS was purchased from Gibco; article No.: 10099-141C; CellTiter-Glo was purchased from Promega; article No.: G7573; DMSO was purchased from VWR AMRESCO; article No.: 0231-500ML; Staurosporine was purchased from Selleck; article No.: S1421; a cell counter was purchased from CHEMOMETEC; model: NC-200; and a microplate reader was purchased from PerkinElmer; Model: Envison.
(§3) HCC70 was human breast ductal cancer cells cultured in an RPMI-1640 culture medium containing 10% FBS. Cells in logarithmic phase were taken, and the cells were subjected to digesting, collecting and counting with pancreatin-EDTA, 2000 HCC70 cells/well were inoculated in a 384-well cell plate, and were cultured in 5% CO2 overnight. A 1000× compound stock solution with 3.16 times of gradient concentration was prepared with DMSO, and was diluted 100 times to 10× compound stock solution with a culture medium, and 10× compound stock solution was added into each cell culture well on the next day after cell inoculation, wherein the final concentration was 1×, and the DMSO content was 0.1%. The cell group was treated with DMSO as an experimental control (control), and the cell group was treated with 5 μM of Staurosporine as a blank control (blank).
In general terms: Cellular ATP, detected with luciferase, serves as a proxy for viable cell number.

In data set [3] the test system is OVCAR-3 human ovarian adenocarcinoma cells. Kind of data set: OVCAR-3 tumor cell proliferation inhibition (CellTiter-Glo). Format: cell-based. To be noted: 3 d culture. As for the experimental part:
OVCAR-3 was purchased from ATCC; article No.: HTB-161; RPMI1640 was purchased from Gibco; article No.: 11875-093; Pancreatin (including EDTA) was purchased from Gibco; article No.: 25200-072; FBS was purchased from Gibco; Article No.: 10091-148; CellTiter-Glo was purchased from Promega; article No.: G7573; Bovine insulin was purchased from absin; article No.: abs9169; DMSO was purchased from VWR AMRESCO; article No.: 0231-500ML; Staurosporine was purchased from Selleck; article No.: S1421; a cell counter was purchased from CHEMOMETEC; model: NC-200; and a microplate reader was purchased from PerkinElmer; Model: Envison.
as §3, with “OVCAR-3” for “HCC70”, “ovarian adenocarcinoma” for “breast ductal cancer”, “20% FBS and 0.01 mg/mL of Bovine insulin.” for “10% FBS.”

The nature of data set [4]: In-vivo pharmacokinetic experiment in male beagles. Particulars: beagle. Also on record: species or system dog. As for the experimental part: Experimental method and conditions: male beagles with weight of 8-11 kg were purchased from Jiangsu Marshall Biotechnology Co., Ltd. The to-be-tested compound was administered to 3 dogs at 0.2 mg/kg or 1.0 mg/kg (solvent: 2% DMSO+10% Kolliphor HS 15+88% (6.818% of hydroxypropyl-beta-cyclodextrin aqueous solution), 0.2 mg/mL or 1.0 mg/mL) by intravenous injection, and administered to 3 dogs at 2 mg/kg (solvent: 5% DMSO+95% (10% hydroxypropyl-beta-cyclodextrin salt aqueous solution, 0.4 mg/mL) by oral intragastric administration. Head vein blood sampling was carried out 5 min, 15 min, 30 min, 1 h, 2 h, 4 h, 8 h and 24 h after the administration, and 500 μL of each sample was collected. After collection, the samples were placed on ice, and plasma was centrifugally separated within 15 min for testing. The concentration of the medicine in the plasma was detected by liquid chromatography-tandem mass spectrometry (LC/MS/MS), and pharmacokinetic parameters were calculated with Phoenix WinNonlin software when the concentration was measured.

Data set [5] deals with CDK2/Cyclin E1 (Homo sapiens (Human), UniProt P24941). Kind of data set: In-vitro inhibition of CDK2/Cyclin E1 kinase activity (Caliper mobility shift). Format: biochemical. To be noted: for Ki: Ki calculated from IC50 under Km ATP condition (Cheng and Prusoff); for Selectivity (CDK2 Ki/CDK7 KD): Ki off-target / KD CDK7 (SPR).
Source text: as §1, §2

Data set [6] has as its target CDK12/Cyclin K (Homo sapiens (Human), UniProt Q9NYV4). Briefly: In-vitro inhibition of CDK12/Cyclin K kinase activity (Caliper mobility shift). Format: biochemical. To be noted: for Ki: Ki calculated from IC50 under Km ATP condition (Cheng and Prusoff); for Selectivity (CDK12 Ki/CDK7 KD): Ki off-target / KD CDK7 (SPR).
Source text: as §1, §2

The target of data set [7] is CDK7/Cyclin H/MAT1 (Homo sapiens (Human), UniProt P50613). Briefly: In-vitro inhibition of CDK7/Cyclin H/MAT1 kinase activity (Caliper mobility shift). Format: biochemical. To be noted: ATP 50 μM, 70 min, 27° C.; read-out: CDK7/CyclinH/MAT1 IC50 assay.
CDK7/Cyclin H/MAT1, sequence (P50613 whole entry): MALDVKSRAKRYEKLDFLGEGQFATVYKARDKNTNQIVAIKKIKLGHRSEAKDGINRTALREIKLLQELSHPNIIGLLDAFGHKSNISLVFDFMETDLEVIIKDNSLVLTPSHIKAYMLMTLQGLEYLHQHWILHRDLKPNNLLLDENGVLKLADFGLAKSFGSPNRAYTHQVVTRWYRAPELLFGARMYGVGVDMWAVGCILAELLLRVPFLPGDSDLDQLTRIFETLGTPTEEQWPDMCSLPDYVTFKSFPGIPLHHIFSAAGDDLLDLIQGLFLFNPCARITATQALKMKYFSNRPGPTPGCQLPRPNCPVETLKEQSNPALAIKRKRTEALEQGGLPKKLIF
CDK7/Cyclin H/MAT1, sequence (P51946 whole entry partner): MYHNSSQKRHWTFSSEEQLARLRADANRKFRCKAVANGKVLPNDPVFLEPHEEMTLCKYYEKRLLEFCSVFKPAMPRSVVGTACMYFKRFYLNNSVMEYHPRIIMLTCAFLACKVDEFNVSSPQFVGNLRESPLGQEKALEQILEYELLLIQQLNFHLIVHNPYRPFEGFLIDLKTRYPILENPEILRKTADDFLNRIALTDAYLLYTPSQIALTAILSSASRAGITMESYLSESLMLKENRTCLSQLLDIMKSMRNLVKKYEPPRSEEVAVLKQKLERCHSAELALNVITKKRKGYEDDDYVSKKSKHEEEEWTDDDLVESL
CDK7/Cyclin H/MAT1, sequence (P51948 whole entry partner): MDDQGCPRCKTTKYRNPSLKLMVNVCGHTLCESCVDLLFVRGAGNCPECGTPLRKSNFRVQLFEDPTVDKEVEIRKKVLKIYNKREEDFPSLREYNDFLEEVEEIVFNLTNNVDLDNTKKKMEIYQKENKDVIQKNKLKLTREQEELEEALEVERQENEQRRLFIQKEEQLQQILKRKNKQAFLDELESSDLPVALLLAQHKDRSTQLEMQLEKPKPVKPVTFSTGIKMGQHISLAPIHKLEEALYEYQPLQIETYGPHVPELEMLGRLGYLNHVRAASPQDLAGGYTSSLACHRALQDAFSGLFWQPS
Source text: as §1
This experiment was used for determining the inhibition of the activities of CDK2, CDK7, CDK9 and CDK12 kinases by the compound. The kinase reaction carried out by the present invention was measured in a 384-well plate, the final measured volume was 16 μl, and the reaction temperature was 27° C. The concentrations of the kinases were determined by optimization experiment. […] The data was calculated with GraphPad Prism version 9.0, and an IC50 value was obtained by adjusting a nonlinear regression model using a dose reaction curve. […]

[8] abbreviates: intravenous injection 0.2 mg/kg.

CDK9/Cyclin T1, sequence (P50750 whole entry): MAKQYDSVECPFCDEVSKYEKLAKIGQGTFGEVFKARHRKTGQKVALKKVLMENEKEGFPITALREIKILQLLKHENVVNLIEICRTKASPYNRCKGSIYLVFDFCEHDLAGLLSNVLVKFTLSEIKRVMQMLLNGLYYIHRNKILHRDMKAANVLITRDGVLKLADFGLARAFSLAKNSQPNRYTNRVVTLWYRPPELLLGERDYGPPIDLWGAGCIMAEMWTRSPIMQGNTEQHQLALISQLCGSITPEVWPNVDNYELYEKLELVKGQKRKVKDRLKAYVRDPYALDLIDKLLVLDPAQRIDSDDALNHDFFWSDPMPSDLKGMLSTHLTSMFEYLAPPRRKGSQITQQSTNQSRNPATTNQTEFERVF
CDK9/Cyclin T1, sequence (O60563 whole entry partner): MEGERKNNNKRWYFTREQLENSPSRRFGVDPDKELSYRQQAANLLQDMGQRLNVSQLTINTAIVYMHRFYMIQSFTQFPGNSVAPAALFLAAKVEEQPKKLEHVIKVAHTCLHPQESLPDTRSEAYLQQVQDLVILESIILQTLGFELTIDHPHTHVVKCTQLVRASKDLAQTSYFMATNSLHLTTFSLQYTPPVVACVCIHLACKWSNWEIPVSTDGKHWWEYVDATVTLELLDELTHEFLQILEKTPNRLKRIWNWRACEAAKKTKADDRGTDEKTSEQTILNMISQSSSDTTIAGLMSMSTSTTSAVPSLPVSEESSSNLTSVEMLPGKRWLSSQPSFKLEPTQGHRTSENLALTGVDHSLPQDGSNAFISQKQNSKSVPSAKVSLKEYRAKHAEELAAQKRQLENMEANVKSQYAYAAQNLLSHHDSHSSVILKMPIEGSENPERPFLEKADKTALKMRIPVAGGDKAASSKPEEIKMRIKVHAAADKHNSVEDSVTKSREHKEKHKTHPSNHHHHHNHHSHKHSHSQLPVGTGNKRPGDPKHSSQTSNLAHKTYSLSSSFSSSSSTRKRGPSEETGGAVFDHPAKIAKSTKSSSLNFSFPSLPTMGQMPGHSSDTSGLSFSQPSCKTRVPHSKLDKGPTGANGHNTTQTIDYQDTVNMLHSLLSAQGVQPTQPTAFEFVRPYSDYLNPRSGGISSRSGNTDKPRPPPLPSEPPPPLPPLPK
CDK12/Cyclin K, sequence (Q9NYV4 whole entry): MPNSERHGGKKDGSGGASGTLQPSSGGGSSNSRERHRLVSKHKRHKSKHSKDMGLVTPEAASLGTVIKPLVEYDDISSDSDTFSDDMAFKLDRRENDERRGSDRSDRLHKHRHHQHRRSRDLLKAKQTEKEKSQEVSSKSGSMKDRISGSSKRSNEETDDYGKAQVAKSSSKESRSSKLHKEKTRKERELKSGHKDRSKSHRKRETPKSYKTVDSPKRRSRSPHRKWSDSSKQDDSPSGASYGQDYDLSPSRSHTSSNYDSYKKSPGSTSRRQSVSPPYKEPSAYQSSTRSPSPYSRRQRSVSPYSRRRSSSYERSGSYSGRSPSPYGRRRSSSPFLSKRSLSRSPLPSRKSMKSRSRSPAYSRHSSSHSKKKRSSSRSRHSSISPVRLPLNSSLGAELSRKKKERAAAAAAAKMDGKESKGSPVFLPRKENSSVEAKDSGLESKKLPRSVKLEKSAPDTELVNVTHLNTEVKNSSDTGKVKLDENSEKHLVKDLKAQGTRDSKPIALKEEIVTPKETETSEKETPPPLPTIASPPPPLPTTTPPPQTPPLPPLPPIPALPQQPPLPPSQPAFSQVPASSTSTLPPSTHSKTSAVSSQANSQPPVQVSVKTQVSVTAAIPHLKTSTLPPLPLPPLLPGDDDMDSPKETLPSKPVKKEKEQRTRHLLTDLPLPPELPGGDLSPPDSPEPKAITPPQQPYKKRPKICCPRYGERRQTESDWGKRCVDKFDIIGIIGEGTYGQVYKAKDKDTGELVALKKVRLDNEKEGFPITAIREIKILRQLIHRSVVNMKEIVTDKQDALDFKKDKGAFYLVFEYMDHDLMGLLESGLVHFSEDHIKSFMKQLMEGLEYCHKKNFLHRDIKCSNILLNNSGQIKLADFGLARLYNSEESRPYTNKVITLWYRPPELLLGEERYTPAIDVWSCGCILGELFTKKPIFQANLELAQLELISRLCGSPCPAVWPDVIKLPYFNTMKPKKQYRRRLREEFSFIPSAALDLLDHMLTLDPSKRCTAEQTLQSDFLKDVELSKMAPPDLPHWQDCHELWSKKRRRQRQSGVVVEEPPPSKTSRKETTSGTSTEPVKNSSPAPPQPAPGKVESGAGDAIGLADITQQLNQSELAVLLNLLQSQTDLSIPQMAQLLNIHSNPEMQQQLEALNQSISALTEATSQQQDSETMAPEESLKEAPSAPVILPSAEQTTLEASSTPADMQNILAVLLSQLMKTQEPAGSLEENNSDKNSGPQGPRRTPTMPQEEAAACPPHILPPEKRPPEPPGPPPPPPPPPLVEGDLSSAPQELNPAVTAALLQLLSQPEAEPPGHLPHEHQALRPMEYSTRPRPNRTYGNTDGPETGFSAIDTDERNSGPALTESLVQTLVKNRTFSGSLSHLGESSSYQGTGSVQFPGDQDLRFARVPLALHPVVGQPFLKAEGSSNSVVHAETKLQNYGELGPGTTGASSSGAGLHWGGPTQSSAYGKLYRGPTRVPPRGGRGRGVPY
CDK12/Cyclin K, sequence (O75909 whole entry partner): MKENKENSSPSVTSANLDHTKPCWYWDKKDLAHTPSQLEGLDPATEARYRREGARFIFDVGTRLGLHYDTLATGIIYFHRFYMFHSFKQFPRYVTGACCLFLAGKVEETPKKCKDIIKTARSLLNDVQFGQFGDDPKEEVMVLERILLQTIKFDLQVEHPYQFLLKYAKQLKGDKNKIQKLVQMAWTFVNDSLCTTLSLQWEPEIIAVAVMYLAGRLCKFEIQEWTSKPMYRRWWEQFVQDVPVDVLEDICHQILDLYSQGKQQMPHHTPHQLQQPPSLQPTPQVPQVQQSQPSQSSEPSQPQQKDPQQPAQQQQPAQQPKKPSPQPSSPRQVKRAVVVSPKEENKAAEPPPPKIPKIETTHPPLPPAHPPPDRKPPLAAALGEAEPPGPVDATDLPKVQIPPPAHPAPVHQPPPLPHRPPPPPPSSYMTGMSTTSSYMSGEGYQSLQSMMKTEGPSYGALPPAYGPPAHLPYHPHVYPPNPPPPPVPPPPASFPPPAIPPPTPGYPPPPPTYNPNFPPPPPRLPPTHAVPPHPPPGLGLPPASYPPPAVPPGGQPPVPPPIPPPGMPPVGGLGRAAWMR

`CN1CC(F)(F)CCN(C)[C@H]2CC[C@@H](C2)Nc2ncc(C(F)(F)F)c(n2)-c2c[nH]c3c(P(C)(C)=O)c(ccc23)C1=O` [Compound Z65, (4^1S,43S)-1^7-(dimethylphosphoryl)-8,8-difluoro-5,10-dimethyl-2^5-(trifluoromethyl)-1^1H-3,5,10-triaza-1(3,6)-indola-2(4,2)-pyrimidina-4(1,3)-cyclopentanacycloundecaphan-11-one]: in data set [1], the Ki was 258 nM. Moreover, the IC50 in data set [2] was 46.9 nM. Besides, the IC50 in data set [3] came to 254 nM. In data set [4] (setting [8]), the “AUC0~inf” value came out at 3097 ng·h/mL, the “CL” value worked out at 1.23 mL/min/kg, the “T1/2” value is listed as 3.42 h and the “Vss” value is given as 0.24 L/kg. Besides, in data set [4] (oral administration 2 mg/kg), the “AUC0~inf” value was found to be 45620 ng·h/mL, the “Cmax” value is 6623 ng/mL, the “F(%)” value is 147% and the “T1/2” value is recorded as 4.44 h.
Turning to `CP(C)(=O)c1c2ccc3c(c[nH]c13)-c1nc(ncc1C(F)(F)F)N[C@H]1CC[C@@H](C1)NCCCCNC2=O` [Compound Z5], in data set [5], the Ki was 25.6 nM and the “Selectivity (CDK2 Ki/CDK7 KD)” value is reported as “(CDK2 Ki/CDK7 KD): 160”. Moreover, in data set [1], the Ki is 95.5 nM and the “Selectivity (CDK9 Ki/CDK7 KD)” value is listed as “(CDK9 Ki/CDK7 KD): 597”. Besides, in data set [6], the Ki is 26.1 nM and the “Selectivity (CDK12 Ki/CDK7 KD)” value is reported as “(CDK12 Ki/CDK7 KD): 163”. The IC50 in data set [2] amounted to 42.7 nM.
As for “(4^1S, 4^3S)-2^5-(trifluoromethyl)-1^1H-3,5,10-triaza-1(3,6)-indola-2(4,2)-pyrimidina-4(1,3)-cyclopentanacycloundecaphan-11-one [Compound Z2]”, the IC50 in data set [7] was found to be 4.58 nM; in data set [2], 207 nM. Moreover, the Ki in data set [5] was 9.8 nM; in data set [1] it was 10.6 nM; in data set [6], 22.7 nM. Also, the “Selectivity (CDK2 Ki/CDK7 KD)” value in data set [5] is given as “(CDK2 Ki/CDK7 KD): 70”. In addition, the “Selectivity (CDK9 Ki/CDK7 KD)” value in data set [1] is recorded as “(CDK9 Ki/CDK7 KD): 76”. The “Selectivity (CDK12 Ki/CDK7 KD)” value in data set [6] is reported as “(CDK12 Ki/CDK7 KD): 162”.
As to `CP(C)(=O)c1c2ccc3c(c[nH]c13)-c1nc(ncc1C(F)(F)F)N[C@H]1CC[C@@H](C1)NCCOCCNC2=O` [Compound Z7, (4^1S,4^3S)-1^7-(dimethylphosphoryl)-2^5-(trifluoromethyl)-1H-8-oxa-3,5,11-triaza-1(3,6)-indola-2(4,2)-pyrimidina-4(1,3)-cyclopentanacyclododecaphan-12-one], in data set [5], the Ki is 33.4 nM and the “Selectivity (CDK2 Ki/CDK7 KD)” value is given as “(CDK2 Ki/CDK7 KD): 566”. For the same molecule, in data set [1], the Ki is 217 nM and the “Selectivity (CDK9 Ki/CDK7 KD)” value is “(CDK9 Ki/CDK7 KD): 3675”. For the same molecule, in data set [6], the Ki was 61.4 nM and the “Selectivity (CDK12 Ki/CDK7 KD)” value was “(CDK12 Ki/CDK7 KD): 61.35”. In data set [2], this molecule gave an IC50 of 41.1 nM.
Regarding `O=C1NCCOCCN2CC[C@@H](C2)Nc2ncc(C(F)(F)F)c(n2)-c2c[nH]c3cc1ccc23` [Compound Z1, (4^3S)-2^5-(trifluoromethyl)-1^1H-7-oxa-3,10-diaza-1(3,6)-indola-2(4,2)-pyrimidina-4(3,1)-pyrrolidinacycloundecaphan-11-one], the IC50 in data set [7] amounted to 11 nM. In addition, the Ki in data set [5] was 154 nM; in data set [1], 52.2 nM; in data set [6], 62.6 nM.
With `CN1C[C@@H](F)CCN(C)[C@H]2CC[C@@H](C2)Nc2ncc(C(F)(F)F)c(n2)-c2c[nH]c3c(P(C)(C)=O)c(ccc23)C1=O` [Compound Z79, (4^1S,4^3S,8S)-1^7-(dimethylphosphoryl)-8-fluoro-5,10-dimethyl-2^5-(trifluoromethyl)-1^1H-3,5,10-triaza-1(3,6)-indola-2(4,2)-pyrimidina-4(1,3)-cyclopentanacycloundecaphan-11-one], in data set [5], the Ki is 23.3 nM and the “Selectivity (CDK2 Ki/CDK7 KD)” value is given as “(CDK2 Ki/CDK7 KD): 192”. In data set [1], the Ki was 134 nM and the “Selectivity (CDK9 Ki/CDK7 KD)” value was “(CDK9 Ki/CDK7 KD): 1103”. Moreover, in data set [6], the Ki is 92.8 nM and the “Selectivity (CDK12 Ki/CDK7 KD)” value is reported as “(CDK12 Ki/CDK7 KD): 763”. In addition, the IC50 in data set [2] amounted to 66.5 nM. In data set [3], this molecule gave an IC50 of 84 nM.

Broadly, the Ki is the equilibrium dissociation constant of an inhibitor or competing ligand from its target. For orientation: Vss means a proportionality between amount in the body and measured concentration, not a real space. The Cmax is the peak of the concentration-time curve.

These data come from patent publication US20250145632A1, “Pyrimidine Heterocyclic Compound, Preparation Method Thereof and use Thereof in Medicine” (INSILICO MEDICINE IP LIMITED, priority 2021, published 2025).
